Experiments:
[1] = molecular target: T1, Cathepsin B (Homo sapiens, UniProt P07858); experiment: Inhibition of human cathepsin B
[2] = Covalent reversible inhibition of Leishmania cysteine protease B using Z-Phe-Arg-7-amido-4-methylcoumarin as substrate incubated for 2 mins followed by substrate addition by fluorescence assay
[3] = molecular target: T1, Cathepsin B; experiment: Inhibition of human cathepsin B relative to control
[4] = tested on: Leishmania; experiment: Covalent reversible inhibition of Leishmania cysteine protease B using Z-Phe-Arg-7-amido-4-methylcoumarin as substrate incubated for 2 mins followed by substrate addition by fluorescence assay relative to control; design: concentration or dose not given beside the values

| Structure (SMILES) | Ki [1] [µM] | Ki [2] [µM] | pKi [2] | inhibition (INH) [3] [%] | inhibition [4] [%] |
| --- | --- | --- | --- | --- | --- |
| N#CC1(NC(=O)[C@@H](Cc2ccccc2)N[C@@H](c2ccccc2)C(F)(F)F)CC1 | – | 4.4 | 5.37 | – | – |
| Cc1ccc([C@H](N[C@H](Cc2ccccc2)C(=O)NC2(C#N)CC2)C(F)(F)F)cc1 | – | > 10 | < 5 | – | 86 |
| N#CC1(NC(=O)[C@@H](Cc2ccccc2)N[C@@H](c2ccc(Br)cc2)C(F)(F)F)CC1 | – | > 10 | < 5 | – | – |
| COc1ccc([C@@H](N[C@H](Cc2ccccc2)C(=O)NC2(C#N)CC2)C(F)(F)F)cc1 | – | > 10 | < 5 | – | 95 |
| Cc1ccc([C@@H](N[C@H](Cc2ccccc2)C(=O)NC2(C#N)CC2)C(F)(F)F)cc1 | – | > 10 | < 5 | – | 88 |
| COc1ccc([C@H](N[C@H](Cc2ccccc2)C(=O)NC2(C#N)CC2)C(F)(F)F)cc1 | – | > 10 | < 5 | – | 95 |
| N#CC1(NC(=O)[C@@H](Cc2ccccc2)N[C@H](c2ccccc2)C(F)(F)F)CC1 | – | 7.65 | 5.11 | – | – |
| COc1ccc([C@@H](N[C@@H](Cc2ccccc2)C(=O)NC2(C#N)CC2)C(F)(F)F)cc1 | – | > 10 | < 5 | – | 70 |
| Cc1ccc([C@H](N[C@@H](Cc2ccccc2)C(=O)NC2(C#N)CC2)C(F)(F)F)cc1 | – | 4.07 | 5.4 | – | – |

Molecules with a lower Ki [2], results first:

| Ki [1] [µM] | Ki [2] [µM] | pKi [2] | inhibition (INH) [3] [%] | inhibition [4] [%] | Structure (SMILES) |
| --- | --- | --- | --- | --- | --- |
| > 10 | 0.795 | 6.1 | > 95 | – | N#CC1(NC(=O)[C@@H](Cc2ccccc2)N[C@H](c2ccc(Br)cc2)C(F)(F)F)CC1 |
| > 10 | 1.5 | 5.8 | 92 | – | Cc1ccc([C@@H](N[C@@H](Cc2ccccc2)C(=O)NC2(C#N)CC2)C(F)(F)F)cc1 |
| – | 3.23 | 5.5 | – | – | COc1ccc([C@H](N[C@@H](Cc2ccccc2)C(=O)NC2(C#N)CC2)C(F)(F)F)cc1 |
| – | 1.41 | 5.85 | – | – | N#CC1(NC(=O)[C@H](Cc2ccccc2)N[C@H](c2ccccc2)C(F)(F)F)CC1 |
| – | 0.595 | 6.23 | – | – | N#CC1(NC(=O)[C@H](Cc2ccccc2)N[C@H](c2ccc(Br)cc2)C(F)(F)F)CC1 |
| > 10 | 1.7 | 5.77 | 74.5 | – | N#CC1(NC(=O)[C@H](Cc2ccccc2)N[C@@H](c2ccccc2)C(F)(F)F)CC1 |
| > 10 | 0.151 | 6.82 | > 95 | – | N#CC1(NC(=O)[C@H](Cc2ccccc2)N[C@@H](c2ccc(Br)cc2)C(F)(F)F)CC1 |

From ChEMBL document CHEMBL4725295, “Synthesis and matched molecular pair analysis of covalent reversible inhibitors of the cysteine protease CPB” (Bioorg Med Chem Lett, 2020)
